Counter-ions that a name gives are not always drawn.

For one series, the target named is NaV1.1 (Homo sapiens (Human), UniProt P35498). The experiment in a line: Sodium Influx Assay (Flux), NaV1.1.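 Also: channels co-expressed with human β1 subunit and held open by modulators, cells exposed to compounds for one hour at room temperature, IC50 from percent inhibition of influx.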 The class given is cell-based. The conditions noted are these: Trex HEK293 cells, ANG2 dye, inactivated state.
Another series deals with NaV1.5 (Homo sapiens (Human), UniProt Q14524). The experiment in a line: Sodium Influx Assay (Flux), NaV1.5. The conditions noted are these: read-out: Flux NaV1.5 IC50; Trex HEK293 cells, ANG2 dye, inactivated state.
NaV1.5, sequence (Q14524 other isoform, or with tags, fused parts or gaps): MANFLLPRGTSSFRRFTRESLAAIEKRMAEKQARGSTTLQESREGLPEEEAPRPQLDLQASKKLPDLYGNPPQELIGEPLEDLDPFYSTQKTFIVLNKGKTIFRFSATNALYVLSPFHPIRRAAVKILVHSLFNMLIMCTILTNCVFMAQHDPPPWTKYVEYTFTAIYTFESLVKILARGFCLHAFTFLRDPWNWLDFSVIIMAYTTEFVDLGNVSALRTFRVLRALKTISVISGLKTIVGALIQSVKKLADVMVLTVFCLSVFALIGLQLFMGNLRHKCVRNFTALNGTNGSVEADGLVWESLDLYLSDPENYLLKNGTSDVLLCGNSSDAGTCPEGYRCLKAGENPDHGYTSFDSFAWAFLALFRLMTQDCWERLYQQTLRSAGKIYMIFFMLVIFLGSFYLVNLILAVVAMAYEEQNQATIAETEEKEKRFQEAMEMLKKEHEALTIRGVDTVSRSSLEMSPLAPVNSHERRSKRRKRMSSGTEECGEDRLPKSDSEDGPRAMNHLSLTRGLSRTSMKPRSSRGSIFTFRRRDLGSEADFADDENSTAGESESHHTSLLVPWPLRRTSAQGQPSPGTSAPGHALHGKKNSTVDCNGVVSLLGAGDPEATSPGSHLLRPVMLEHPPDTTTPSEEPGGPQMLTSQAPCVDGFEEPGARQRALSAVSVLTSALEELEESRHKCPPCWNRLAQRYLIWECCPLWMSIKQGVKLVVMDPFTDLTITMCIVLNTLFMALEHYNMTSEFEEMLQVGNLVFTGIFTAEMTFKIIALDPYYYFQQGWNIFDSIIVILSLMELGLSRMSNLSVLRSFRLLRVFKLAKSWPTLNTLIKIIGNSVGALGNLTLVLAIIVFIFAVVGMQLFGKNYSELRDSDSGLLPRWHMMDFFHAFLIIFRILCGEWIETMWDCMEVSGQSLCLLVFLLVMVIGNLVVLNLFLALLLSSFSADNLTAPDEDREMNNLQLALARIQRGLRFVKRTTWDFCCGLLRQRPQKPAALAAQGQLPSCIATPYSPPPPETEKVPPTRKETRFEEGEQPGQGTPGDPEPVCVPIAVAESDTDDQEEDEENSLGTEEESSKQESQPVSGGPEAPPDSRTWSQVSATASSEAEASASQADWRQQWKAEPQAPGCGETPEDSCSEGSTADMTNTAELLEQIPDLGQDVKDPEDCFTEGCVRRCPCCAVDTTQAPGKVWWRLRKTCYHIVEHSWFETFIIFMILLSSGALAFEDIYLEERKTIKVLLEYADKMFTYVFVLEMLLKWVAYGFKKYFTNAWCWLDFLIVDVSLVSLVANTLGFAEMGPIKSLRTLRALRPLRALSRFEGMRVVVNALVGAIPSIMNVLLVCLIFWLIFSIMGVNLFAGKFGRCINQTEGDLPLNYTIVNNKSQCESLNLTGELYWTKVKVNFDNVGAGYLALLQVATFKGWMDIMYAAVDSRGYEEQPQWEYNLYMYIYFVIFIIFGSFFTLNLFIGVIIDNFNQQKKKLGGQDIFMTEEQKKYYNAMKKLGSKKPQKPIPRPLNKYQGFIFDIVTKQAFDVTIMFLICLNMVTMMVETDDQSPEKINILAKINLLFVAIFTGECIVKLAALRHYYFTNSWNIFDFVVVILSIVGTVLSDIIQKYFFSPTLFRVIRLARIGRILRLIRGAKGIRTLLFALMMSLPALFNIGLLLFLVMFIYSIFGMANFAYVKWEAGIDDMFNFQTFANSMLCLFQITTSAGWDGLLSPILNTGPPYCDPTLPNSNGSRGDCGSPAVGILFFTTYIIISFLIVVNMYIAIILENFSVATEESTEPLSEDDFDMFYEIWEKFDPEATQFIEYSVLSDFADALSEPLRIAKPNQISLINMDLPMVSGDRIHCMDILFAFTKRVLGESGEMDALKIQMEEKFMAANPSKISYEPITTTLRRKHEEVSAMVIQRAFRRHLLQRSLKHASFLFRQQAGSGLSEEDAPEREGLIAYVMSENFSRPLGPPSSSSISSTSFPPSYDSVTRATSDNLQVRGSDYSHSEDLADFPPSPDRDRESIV
The target in the next series is NaV1.6 (Homo sapiens (Human), UniProt Q9UQD0). The series is described as follows: Sodium Influx Assay (Flux), NaV1.6.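 Also: Tetracycline-induced cells, compounds applied for one hour at room temperature with modulators holding channels open, IC50 from percent inhibition of sodium influx.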 The class given is cell-based. The settings on record: Trex HEK293 cells, ANG2 dye, inactivated state.

For the compound `C[C@H](Nc1cc(F)c(S(=O)(=O)Nc2nccs2)cc1Cl)c1ccc(F)c(F)c1` [Example 53, (S)-5-chloro-4-((1-(3,4-difluorophenyl)ethyl)amino)-2-fluoro-N-(thiazol-2-yl)benzenesulfonamide], the IC50 – broadly, the concentration at which inhibition is half-maximal – on NaV1.1 is 0.726 µM; on NaV1.5, 6.89 µM; against NaV1.6, 0.741 µM.

For the compound `CCC(Nc1cc(F)c(S(=O)(=O)Nc2nccs2)cc1Cl)c1ccc2c(c1)CCCC2` (stereo not drawn) [Example 55, 5-chloro-2-fluoro-4-((1-(5,6,7,8-tetrahydronaphthalen-2-yl)propyl)amino)-N-(thiazol-2-yl)benzenesulfonamide], the IC50 on NaV1.1 was found to be 16.1 µM; at NaV1.5, 21.3 µM; against NaV1.6 it was 20.7 µM.

`CCC(Nc1cc(F)c(S(=O)(=O)Nc2nccs2)cc1Cl)c1cccnc1` (stereo not drawn) [Example 58, 5-chloro-2-fluoro-4-((1-(pyridin-3-yl)propyl)amino)-N-(thiazol-2-yl)benzenesulfonamide]: the IC50 at NaV1.1 stood at 2.53 µM; at NaV1.5, 7.09 µM; against NaV1.6 it was 0.152 µM.

As to `CCC(Nc1cc(F)c(S(=O)(=O)Nc2nccs2)cc1Cl)c1ccncc1` (stereo not drawn) [Example 60, 5-chloro-2-fluoro-4-((1-(pyridin-4-yl)propyl)amino)-N-(thiazol-2-yl)benzenesulfonamide], the IC50 was 1.57 µM at NaV1.1, 30 µM on NaV1.5 and 3.34 µM on NaV1.6.

For `O=S(=O)(Nc1nccs1)c1cc(Cl)c(N[C@H](CN2CC(F)C2)c2ccccc2)cc1F` [Example 68, (S)-5-chloro-4-((2-(3-fluoroazetidin-1-yl)-1-phenylethyl)amino)-2-fluoro-N-(thiazol-2-yl)benzenesulfonamide 2,2,2-trifluoroacetate], the figures for the IC50 against NaV1.1, at NaV1.5 and against NaV1.6 were 5.15 µM, 25.3 µM and 1.81 µM, respectively.

As to `O=S(=O)(Nc1nccs1)c1cc(Cl)c(N[C@H](CN2CC(F)(F)C2)c2ccccc2)cc1F` [Example 69, (S)-5-chloro-4-((2-(3,3-difluoroazetidin-1-yl)-1-phenylethyl)amino)-2-fluoro-N-(thiazol-2-yl)benzenesulfonamide], the IC50 was 3.03 µM against NaV1.1, 7.66 µM at NaV1.5 and 1.59 µM against NaV1.6.

In the case of `O=S(=O)(Nc1nccs1)c1cc(Cl)c(N[C@@H](CN2CCCC2)c2ccccc2)cc1F` [Example 71, (R)-5-chloro-2-fluoro-4-((1-phenyl-2-(pyrrolidin-1-yl)ethyl)amino)-N-(thiazol-2-yl)benzenesulfonamide], the IC50 at NaV1.1, on NaV1.5 and against NaV1.6 was 30 µM throughout.

In the case of `O=S(=O)(Nc1nccs1)c1cc(Cl)c(N[C@H](CN2CCOCC2)c2ccccc2)cc1F` [Example 75, (S)-5-chloro-2-fluoro-4-((2-morpholino-1-phenylethyl)amino)-N-(thiazol-2-yl)benzenesulfonamide 2,2,2-trifluoroacetate], the IC50 stood at 13.6 µM against NaV1.1, 21.7 µM on NaV1.5 and 0.261 µM on NaV1.6.

On to `O=S(=O)(Nc1nccs1)c1ccc(N[C@H]2CCCc3cccnc32)c(Cl)c1` [Example 77, (S)-3-chloro-4-((5,6,7,8-tetrahydroquinolin-8-yl)amino)-N-(thiazol-2-yl)benzenesulfonamide], for which the IC50 at NaV1.1 stood at 7.98 µM; on NaV1.5, 26.1 µM; on NaV1.6, 8.08 µM.

For `C[C@H](Nc1ccc(S(=O)(=O)Nc2nccs2)cc1Cl)c1ccccn1` [Example 82, (S)-3-chloro-4-((1-(pyridin-2-yl)ethyl)amino)-N-(thiazol-2-yl)benzenesulfonamide], the IC50 turned out to be 28.7 µM against NaV1.1, 30 µM on NaV1.5 and 2.16 µM against NaV1.6.

Take `CC(Nc1ccc(S(=O)(=O)Nc2nccs2)cc1Cl)c1cnn(C)c1` (stereo not drawn) [Example 83, 3-chloro-4-((1-(1-methyl-1H-pyrazol-4-yl)ethyl)amino)-N-(thiazol-2-yl)benzenesulfonamide]: the IC50 on NaV1.1 is 11 µM; on NaV1.5, 30 µM; against NaV1.6 it was 12.3 µM.

In the case of `C[C@H](Nc1cc(F)c(S(=O)(=O)Nc2cscn2)cc1Cl)c1ccccc1Cl` [Example 92, (S)-5-chloro-4-((1-(2-chlorophenyl)ethyl)amino)-2-fluoro-N-(thiazol-4-yl)benzenesulfonamide], the IC50 at NaV1.1 came to 7.45 µM; on NaV1.5, 4.43 µM; against NaV1.6, 2.53 µM.

With `O=S(=O)(Nc1nccs1)c1cc(Cl)c(NC2CCCc3ccncc32)cc1F` (stereo not drawn) [Example 93, 5-chloro-2-fluoro-4-((5,6,7,8-tetrahydroisoquinolin-8-yl)amino)-N-(thiazol-2-yl)benzenesulfonamide 2,2,2-trifluoroacetate], the IC50 at NaV1.1 was found to be 0.314 µM; at NaV1.5, 8.47 µM; against NaV1.6, 0.27 µM.

`O=S(=O)(Nc1nccs1)c1cc(Cl)c(NC2CCCc3cnccc32)cc1F` (stereo not drawn) [Example 94, 5-chloro-2-fluoro-4-((5,6,7,8-tetrahydroisoquinolin-5-yl)amino)-N-(thiazol-2-yl)benzenesulfonamide 2,2,2-trifluoroacetate]: the IC50 at NaV1.1 stood at 0.142 µM; at NaV1.5, 8.62 µM; on NaV1.6, 0.423 µM.

As to `C[C@H](Oc1cc(F)c(S(=O)(=O)Nc2nccs2)cc1Cl)c1cc(Cl)ccc1F` [Example 95, (S)-5-chloro-4-(1-(5-chloro-2-fluorophenyl)ethoxy)-2-fluoro-N-(thiazol-2-yl)benzenesulfonamide], the IC50 on NaV1.1 amounted to 8.11 µM; on NaV1.5, 30 µM; against NaV1.6, 0.761 µM.

`O=S(=O)(Nc1nccs1)c1cc(Cl)c(NC2CCCc3ncccc32)cc1F` (stereo not drawn) [Example 98, 5-chloro-2-fluoro-4-((5,6,7,8-tetrahydroquinolin-5-yl)amino)-N-(thiazol-2-yl)benzenesulfonamide formate]: the IC50 came to 0.303 µM at NaV1.1, 11 µM on NaV1.5 and 0.299 µM against NaV1.6.

As to `O=S(=O)(Nc1nccs1)c1ccc(NC(c2ccccc2)C2CC2)c(Cl)c1` (stereo not drawn) [Example 99, 3-chloro-4-((cyclopropyl(phenyl)methyl)amino)-N-(thiazol-2-yl)benzenesulfonamide], the IC50 came out at 1.94 µM on NaV1.1, 9.27 µM at NaV1.5 and 0.373 µM at NaV1.6.

`O=S(=O)(Nc1nccs1)c1cc(Cl)c(NC(c2ccccc2)C2CC2)cc1F` (stereo not drawn) [Example 100, 5-chloro-4-((cyclopropyl(phenyl)methyl)amino)-2-fluoro-N-(thiazol-2-yl)benzenesulfonamide]: the values for the IC50 against NaV1.1, on NaV1.5 and against NaV1.6 were 0.667 µM, 6.42 µM and 0.216 µM, respectively.

As to `O=S(=O)(Nc1nccs1)c1cc(Cl)c(N[C@@H]2CCCc3ccccc32)cc1F` [Example 102, (R)-5-chloro-2-fluoro-4-((1,2,3,4-tetrahydronaphthalen-1-yl)amino)-N-(thiazol-2-yl)benzenesulfonamide], the figures for the IC50 at NaV1.1, on NaV1.5 and on NaV1.6 were 0.941 µM, 5.97 µM and 1.67 µM, respectively.

In the case of `O=S(=O)(Nc1nccs1)c1cc(Cl)c(NC2(c3cccc(F)c3)CCC2)cc1F` [Example 106, 5-chloro-2-fluoro-4-((1-(3-fluorophenyl)cyclobutyl)amino)-N-(thiazol-2-yl)benzenesulfonamide], the IC50 was determined as 3.7 µM on NaV1.1, 10.1 µM at NaV1.5 and 0.533 µM against NaV1.6.

Consider `C[C@H](Oc1cc(F)c(S(=O)(=O)Nc2nccs2)cc1Cl)c1ccc(Cl)c(Cl)c1` [Example 108, (S)-5-chloro-4-(1-(3,4-dichlorophenyl)ethoxy)-2-fluoro-N-(thiazol-2-yl)benzenesulfonamide], for which the IC50 against NaV1.1 came out at 21.1 µM; on NaV1.5 it was 22.4 µM; on NaV1.6, 14.5 µM.

In the case of `CC(C)C[C@H](Nc1cc(F)c(S(=O)(=O)Nc2nccs2)cc1Cl)c1ccccc1` [Example 109, (S)-5-chloro-2-fluoro-4-((3-methyl-1-phenylbutyl)amino)-N-(thiazol-2-yl)benzenesulfonamide], the results for the IC50 on NaV1.1, at NaV1.5 and at NaV1.6 were 1.11 µM, 7.86 µM and 0.214 µM, respectively.

As for `CC(C)C[C@@H](Nc1cc(F)c(S(=O)(=O)Nc2nccs2)cc1Cl)c1ccccc1` [Example 110, (R)-5-chloro-2-fluoro-4-((3-methyl-1-phenylbutyl)amino)-N-(thiazol-2-yl)benzenesulfonamide], the IC50 is 3.84 µM against NaV1.1, 3.15 µM at NaV1.5 and 1.03 µM on NaV1.6.

In the case of `CCC[C@H](Nc1cc(F)c(S(=O)(=O)Nc2nccs2)cc1Cl)c1ccccc1` [Example 111, (S)-5-chloro-2-fluoro-4-((1-phenylbutyl)amino)-N-(thiazol-2-yl)benzenesulfonamide], the IC50 amounted to 1.39 µM against NaV1.1, 8.33 µM at NaV1.5 and 0.352 µM on NaV1.6.

For `C[C@H](Oc1cc(F)c(S(=O)(=O)Nc2cscn2)cc1Cl)c1cccc(F)c1` [Example 118, (S)-5-chloro-2-fluoro-4-(1-(3-fluorophenyl)ethoxy)-N-(thiazol-4-yl)benzenesulfonamide], the IC50 at NaV1.1 is 15.9 µM; at NaV1.5 it was 7.5 µM; against NaV1.6, 3.18 µM.

`C[C@@H](Oc1cc(F)c(S(=O)(=O)Nc2nccs2)cc1Cl)c1ccccc1F` [Example 121, (R)-5-chloro-2-fluoro-4-(1-(2-fluorophenyl)ethoxy)-N-(thiazol-2-yl)benzenesulfonamide]: the IC50 against NaV1.1 amounted to 3.38 µM; at NaV1.5, 2.15 µM; at NaV1.6, 2.32 µM.

In the case of `C[C@H](Oc1cc(F)c(S(=O)(=O)Nc2cscn2)cc1Cl)c1cc(Cl)ccc1F` [Example 124, (S)-5-chloro-4-(1-(5-chloro-2-fluorophenyl)ethoxy)-2-fluoro-N-(thiazol-4-yl)benzenesulfonamide], the IC50 stood at 15.9 µM on NaV1.1, 1.87 µM on NaV1.5 and 1.84 µM against NaV1.6.
